Data set [1] has as its system Leishmania donovani. Nature of the data set: Antileishmanial activity against Leishmania donovani MHOM/ET/67/HU3 intracellular amastigotes infected in human THP-1 cells assessed as inhibition of parasite growth incubated for 72 hrs by resazurin based colorimetric assay. The class given is functional, organism-based. Particulars: MHOM/ET/67/HU3, THP-1, 72 h.
Data set [2] concerns Leishmania donovani. The data set can be described thus: Antileishmanial activity against Leishmania donovani infected in BALB/c mouse model assessed as reduction in parasite growth at 75 mg/kg, po administered for 5 consecutive days. The class given is functional. Further details: scale not given: the % may be the effect or the level left.
Data set [3] concerns HepG2. Nature of the data set: Antiproliferative activity against human HepG2 cells assessed as reduction in cell viability incubated for 72 hrs by MTT assay. To be noted: HepG2, 72 h. The format is functional, cell-based. In general terms: Formazan colour is commonly taken as a measure of viable cells.
For data set [4], the system named is HepG2. The data set can be described thus: Cytotoxicity against human HepG2 cells assessed as reduction in cell growth incubated for 48 hrs by MTT assay. To be noted: HepG2, 48 h. The class given is functional, cell-based.
The subject of data set [5] is Leishmania infantum. Nature of the data set: Antileishmanial activity against Leishmania infantum MCAN/ES/89/IPZ229/1/89 promastigotes assessed as reduction in parasite growth measured for 48 hrs by resazurin dye based analysis. The format is functional, organism-based. Particulars: MCAN/ES/89/IPZ229/1/89, 48 h. On the technique in general: Alamar Blue is a resazurin reagent that responds to reducing activity.

The subject of data set [6] is Leishmania donovani. The data set can be described thus: Antileishmanial activity against Leishmania donovani 9515 promastigotes assessed as inhibition of parasite growth incubated for 48 hrs by resazurin dye based assay. The format is functional, organism-based. To be noted: Leishmania donovani, 9515, 48 h.
For data set [7], the system named is Leishmania donovani. Nature of the data set: Antileishmanial activity against Leishmania donovani promastigotes MHOM/SD/62/1S assessed as inhibition of cell growth measured after 48 hrs by resazurin dye based assay. The class given is functional, organism-based.
For data set [8], the system named is Leishmania donovani. Nature of the data set: Antileishmanial activity against Leishmania donovani amastigotes MHOM/SD/62/1S assessed as inhibition of cell growth measured after 48 hrs by resazurin dye based assay. The format is functional, organism-based.
The test system of data set [9] is Leishmania donovani. Nature of the data set: Antileishmanial activity against Leishmania donovani 9515 amastigotes assessed as inhibition of parasite growth incubated for 48 hrs by resazurin dye based assay. The class given is functional, organism-based. Particulars: Leishmania donovani, 9515, 48 h.
A short description of data set [10]: Cytotoxicity against African green monkey Vero cells assessed as reduction in cell viability incubated for 72 hrs by MTT assay. The class given is toxicity, cell-based, Chlorocebus sabaeus.
A short description of data set [11]: Cytotoxicity against human THP-1 cells assessed as inhibition of cell growth measured after 72 hrs by MTT assay. The format is toxicity, cell-based.
Data set [12] relates to Leishmania infantum. Nature of the data set: Antileishmanial activity against Leishmania infantum MHOM/MA/67/ITMAP263 axenic amastigotes assessed as reduction in parasite viability treated for 24 hrs by PI staining based flow cytometry. To be noted: MHOM/MA/67/ITMAP263, 24 h. The format is functional, organism-based. In general terms: Flow cytometry measures light scatter and fluorescence of single cells or particles in a stream.

Data set [13] deals with Leishmania amazonensis. The data set can be described thus: Antileishmanial activity against Leishmania amazonensis intracellular amastigotes assessed as parasite growth inhibition measured for 72 hrs by resazurin/alamar blue fluorometric assay. The format is functional, organism-based.
The nature of data set [14]: Selectivity index, ratio of CC50 for cytotoxicity against mouse BMDM cells to IC50 for antileishmanial activity against Leishmania amazonensis intracellular amastigotes. The class given is toxicity, cell-based. To be noted: read-out: Ratio CC50/IC50.
Data set [15] concerns Leishmania major. The data set can be described thus: Antileishmanial activity against Leishmania major MHOM/IR/-173 promastigotes assessed as inhibition of parasite growth measured for 24 hrs by resazurin dye-based analysis relative to control. The format is functional. Details: scale not given: the % may be the effect or the level left.
The subject of data set [16] is Leishmania amazonensis. Nature of the data set: Antileishmanial activity against Leishmania amazonensis MHOM/BR/71973/M2269 promastigotes assessed as reduction in parasite viability measured for 48 hrs PI staining based flow cytometry analysis. The class given is functional, organism-based. Particulars: MHOM/BR/71973, 48 h.
Data set [17] relates to Leishmania infantum. The data set can be described thus: Antileishmanial activity against Leishmania infantum MHOM/BR/1972/BH46 promastigotes assessed as reduction in parasite viability measured for 48 hrs by PI staining based flow cytometry analysis. The format is functional, organism-based. To be noted: MHOM/BR/1972/BH46, 48 h.
Data set [18] relates to Leishmania infantum. The data set can be described thus: Antileishmanial activity against Leishmania infantum MHOM/BR/1972/BH46 amastigotes assessed as reduction in cell viability measured for 48 hrs by PI staining based flow cytometry analysis. Particulars: MHOM/BR/1972/BH46, 48 h. The format is functional, organism-based.
Data set [19] concerns Leishmania amazonensis. The data set can be described thus: Antileishmanial activity against Leishmania amazonensis WHOM/00LTB001 promastigotes assessed as reduction in parasite growth incubated for 72 hrs by resazurin staining based analysis. The format is functional, organism-based. Particulars: WHOM/00LTB001, 72 h.
The nature of data set [20]: Cytotoxicity against mouse J774.A1 cells assessed as inhibition of cell growth measured for 72 hrs by MTT assay. The class given is toxicity, cell-based.
Data set [21] has as its system Leishmania infantum. Nature of the data set: Antileishmanial activity against Leishmania infantum MCAN/ES/ 89/IPZ229/1/89 axenic amastigotes assessed as reduction in parasite viability treated for 48 hrs by PI staining based flow cytometry. The format is functional, organism-based. To be noted: MCAN/ES/89/IPZ229/1/89, 48 h.
Data set [22] in a line: Cytotoxicity against primary peritoneal mouse macrophages cells assessed as reduction in cell growth measured after 24 hrs by colorimetric assay. The format is toxicity, cell-based, Macrophage.
The subject of data set [23] is Leishmania major. Nature of the data set: Antileishmanial activity against Leishmania major IR-173 promastigotes assessed as inhibition of parasite growth measured for 48 hrs by resazurin staining based analysis. The format is functional, organism-based. To be noted: IR-173, 48 h.
The nature of data set [24]: Cytotoxicity against human THP-1 cells assessed as reduction in cell growth incubated for 3 days by resazurin dye based analysis. The class given is toxicity. To be noted: time 3 day.
Data set [25] in a line: Cytotoxicity against HEK293 cells assessed as reduction in cell growth incubated for 3 days by resazurin dye based analysis. Particulars: human, time 3 day. The format is toxicity.
The subject of another data set is Leishmania braziliensis. Nature of the data set: Antileishmanial activity against Leishmania braziliensis promastigotes. The format is functional, organism-based.
For data set [26], the system named is Leishmania major. Nature of the data set: Antileishmanial activity against Leishmania major promastigotes. The class given is functional, organism-based.
The nature of data set [27]: Cytotoxicity against African green monkey Vero cells assessed as reduction in cell growth. The class given is toxicity, cell-based, Chlorocebus sabaeus.
The test system of data set [28] is Leishmania donovani. Nature of the data set: Antileishmanial activity against Leishmania donovani Ag83 promastigotes infected in BALB/c mouse assessed as reduction in parasite infection at 5 to 20 mg/kg by propidium iodide staining analysis. The format is functional, organism-based.
Data set [29] concerns Leishmania infantum. The data set can be described thus: Antileishmanial activity against Leishmania infantum MON-1 promastigotes assessed as reduction in parasite viability measured after 48 hrs by MTT assay. To be noted: MON-1, 48 h. The format is functional, organism-based.
For data set [30], the system named is HepG2. Nature of the data set: Antiproliferative activity against human HepG2 cells assessed as reduction in cell growth measured for 72 hrs by MTT assay. The class given is functional, cell-based. Particulars: HepG2, 72 h.
For data set [31], the system named is HepG2. The data set can be described thus: Cytotoxicity against human HepG2 cells assessed as reduction in cell growth measured for 48 hrs by MTT assay. The format is functional.
For a further data set, the system named is Leishmania tropica. The data set can be described thus: Antileishmanial activity against Leishmania tropica promastigotes incubated for 24 hrs measured by alamar blue staining based fluorescence analysis. The format is functional, organism-based.
Data set [32] has as its system Leishmania infantum. The data set can be described thus: Antileishmanial activity against Leishmania infantum MCAN/ES/89/IPZ229/1/89 axenic amastigotes assessed as reduction in parasite growth treated for 24 hrs by PI staining based flow cytometry. The class given is functional, organism-based. Particulars: MCAN/ES/89/IPZ229/1/89, 24 h.
Data set [33] is described as follows: Selectivity index, ratio of CC50 for human HepG2 cells to EC50 for GFP-expressing Leishmania infantum intracellular amastigotes infected in human THP-1 derived macrophage cells. The class given is toxicity, cell-based. To be noted: read-out: Ratio CC50/EC50.
The test system of data set [34] is Leishmania infantum. Nature of the data set: Antileishmanial activity against Leishmania infantum amastigotes infected in human THP-1 cells assessed as reduction in parasite growth incubated for 72 hrs by high content imaging analysis. The class given is functional, organism-based. To be noted: THP-1, 72 h.

The values below come from ChEMBL document CHEMBL5528001, “Synthetic product-based approach toward potential antileishmanial drug development” (Eur J Med Chem, 2024).

Usually IC50 stands for the midpoint of a concentration-inhibition curve. `CC(C)Oc1cc(OCCCCCCCCn2ccnc2)ccc1NC(=N)c1ccccn1`: in the data set on Leishmania donovani [1], the concentration for half-maximal inhibition (IC50) was found to be 0.53 µM. In the data set with Leishmania donovani [2], the Activity was 33%.

What is called EC50 is the concentration that produces a half-maximal response. Turning to `Nc1nc2ccccc2c2ccccc12`, the EC50 was less than 30 µM in the data set with HepG2 [3], 3.07 µM in the data set with HepG2 [4] and 12.6 µM with Leishmania infantum [5].

For `O=[N+]([O-])c1ccc(/C=N\NS(=O)(=O)c2ccc(-c3ccccc3)cc2)o1`, the IC50 came to 1.53 µM with Leishmania donovani [6], 1.45 µM with Leishmania donovani [7], 2.94 µM in the data set with Leishmania donovani [8] and 6.29 µM in the data set with Leishmania donovani [9]. The IC50 at 72 h in data set [10] is 16.4 µM; in [11], 50.4 µM.

Take `CCCCCCCCNCc1ccc2c(c1)C(=O)CC(C)(C)O2`: the IC50 is 25.3 µM in the data set on Leishmania infantum [12] and 24.6 µM with Leishmania amazonensis [13]. For the same molecule, in [14], the selectivity ratio was found to be 1.6.

With `O=C(Cn1cnc2ccccc2c1=O)N1CCC2(CC1)OCCO2`, in the data set on Leishmania major [15], the Activity is reported as 35%.

As to `C=CCc1cc(OC)c2oc(=O)c(C(=O)c3ccccc3)cc2c1`, the half-maximal inhibitory concentration (IC50) with Leishmania amazonensis [16] was found to be 82 µM; with Leishmania infantum [17] it was 26.7 µM; in the data set with Leishmania infantum [18], 18 µM.

As usually defined, the CC50 is the concentration giving 50% cytotoxicity. As for `CCc1ccc(NC(=S)N/N=C/c2c[nH]c3c(C)cc(Br)cc23)cc1`, the IC50 in the data set on Leishmania amazonensis [19] stood at 12.3 µM. Besides, the CC50 at 72 h in data set [20] amounted to 53.2 µM.

Regarding `CC1(C)Oc2c(c(=O)[nH]c3ccccc23)[C@H]2[C@@H](Cl)[C@](C)(O)CC[C@@H]21`, the IC50 in the data set on Leishmania infantum [21] is 8.1 µM.

On to `CCCCCCCCCCn1cc(CNCCNc2ccnc3cc(Cl)ccc23)nn1`, for which, in data set [22], the CC50 at 24 h was 18.2 µM. Also, in the data set on Leishmania major [23], the IC50 stood at 0.08 µM.

`COc1cc(/C=C2/Oc3cc(O)ccc3C2=O)cc(OC)c1`: the CC50 at 72 h is 96.9 µM in data set [24] and greater than 200 µM in [25].

As to `Cc1cc(OCCCCCNC(C)(C)C)cc2oc3cc(OCCCCCNC(C)(C)C)cc(O)c3c(=O)c12`, the IC50 in the data set with Leishmania braziliensis came to 2.4 µM; with Leishmania major [26], 5.4 µM; in data set [27], 15.5 µM.

On to `O=C(Nc1cncs1)C(c1ccccc1)c1ccc(Cl)cc1` (stereo unspecified), for which the IC50 with Leishmania donovani [28] stood at 3.2 µM.

On to `CCOC(=O)c1cc2c([nH]c3ccccc32)c(-c2cn(-c3ccccc3)nn2)n1`, for which the EC50 was determined as 4.8 µM with Leishmania infantum [29] and 13.6 µM in the data set with HepG2 [30]. Besides, in the data set on HepG2 [31], the CC50 is greater than 200 µM.

With `Nc1ccnn1C(=O)C1CCC2(CC1)OOC1(O2)C2CC3CC(C2)CC1C3` (stereo unspecified), the IC50 with Leishmania tropica and in the data set with Leishmania infantum [32] was 219 µM in each case. Also, the selectivity ratio in data set [33] is less than 5.

In the case of `C/C(=N\Nc1nc(-c2ccc(Br)cc2)cs1)c1ccccn1`, the IC50 in the data set with Leishmania infantum [34] stood at 0.43 µM.
